The values that follow come from paper PMC7163397 (Journal of the American Chemical Society, 2017).

One experiment has as its system bacterial membrane. The settings on record: bacterium not stated; ref [6b],[13],[15]; cited from earlier work.
In a further experiment the test system is E. faecium. Briefly: DiBAC4 membrane depolarization on E. faecium. The class given is cell-based, Enterococcus faecium. The settings on record: deoxycholate as positive control.
The next experiment deals with A. baumannii. Briefly: DiBAC4 membrane depolarization on A. baumannii. The class given is cell-based, Acinetobacter baumannii. The following applies: polymyxin as positive control.

Consider tridecaptin, for which, in the experiment with bacterial membrane, the “Membrane depolarization in DiBAC4 assay” value was “does not depolarize the membrane”. As for `C[C@H](CCC(=O)O)[C@H]1CC[C@H]2[C@@H]3CC[C@@H]4C[C@H](O)CC[C@]4(C)[C@H]3C[C@H](O)[C@]12C` [sodium deoxycholate], the “Membrane depolarization (DiBAC4 fluorescence change)” value with E. faecium was “rapidly enhanced DiBAC4 fluorescence”. As to polymyxin, the “Membrane depolarization (DiBAC4 fluorescence change)” value in the experiment with A. baumannii was “rapidly enhanced DiBAC4 fluorescence”.
